One assay concerns transglutaminase (TGase). Kind of assay: Measurement of TG (TGase inhibitory activity, monodansyl cadaverine / N,N-dimethylcasein fluorescence, FDSS 3000). It counts as biochemical. The procedure, abridged:
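Compound (1 μL of 10 mM stock) added to 0.1 mL reaction: 100 mM HEPES-NaOH pH 7.5, 1 mM CaCl2, 20 μM monodansyl cadaverine, 0.05 mg/mL N,N-dimethylcasein, 5 μg/mL TGase. Rate of fluorescence change at 340 nm measured; DMSO control set to 100; TG50 is the concentration halving activity.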

Assay [1] relates to SOC (store operated calcium channel). Kind of assay: Measurement of SOC IC50 (thapsigargin store depletion, calcium re-addition, CHO cells). The format is cell-based. The following applies: read-out: SOC IC50. How it is done: The SOC (store operated calcium channel)-suppressive action can be measured by the method described in the Example and using, for example, FDSS 3000.
CHO cell culture medium was replaced with a BSS solution which is an extracellular fluidfree of calcium, the compound of the present invention was added 1 min later, and 1 μM thapsigargin was allowed to act thereon 2 min later to deplete intracellular calcium store. […]

Assay [2] has as its system Truncated N-terminal huntington 150 Q-EGFP-Neuron 2a cells. Nature of the assay: Measurement of x-Fold (polyglutamine aggregation inhibitory activity). The format is cell-based. How it is done: In the present invention, the polyglutamine aggregation inhibitory activity (x-Fold) can be measured, for example, by the method described in the Example.
The number of the aggregated cells, and the total number of cells were counted by Array Scan V T1 (manufactured by Cellomics, Pittuburg, USA), and the ratio of the aggregated cells to the total number of cells was determined (x-Fold). […]

Setting [3] is: TGase activity with compound (10 mM, 1 μL in 0.1 ml enzyme reaction solution), DMSO control taken as 100.
[4] abbreviates: TGase inhibitory activity measurement, unit not given.
The mark [5] stands for this setting: CHO cells, 1 μM thapsigargin, 2 mM calcium chloride.
The mark [6] stands for this setting: polyglutamine aggregation inhibitory activity, Table 1.
Setting [7] is: polyglutamine aggregation, Truncated N-terminal huntington 150 Q-EGFP-Neuron 2a cells.
The mark [8] stands for this setting: ratio of aggregated cells to total number of cells, compound 20 μM, 20 hr, almost 1 without compound, smaller = stronger inhibition.

Where two headings read alike, the source gives them in different places.

As to `Cc1ccc(B(OCCN(C)C)c2ccc(COCc3ccc(B(OCCN(C)C)c4ccc(C)c(Cl)c4)cc3)cc2)cc1Cl` [Example 422, bis(4,4′-(3-chloro-4-methylphenyl-N,N-dimethylaminoethoxyboryl)benzyl)ether], the “TGase activity remaining (% of DMSO control = 100)” value in the assay with transglutaminase (TGase) (setting [3]) and with transglutaminase (TGase) (setting [4]) was 13 throughout. The IC50 (as a rule, the concentration that gives 50% inhibition) in assay [1] (setting [5]) turned out to be 1200 nM; in assay [1] (Table 1), 700 nM. Further, the x-Fold in assay [2] (setting [6]) was found to be 0.91; in assay [2] (setting [7]), 0.95; in assay [2] (setting [8]), 0.95.

`Cc1ccc(B(OCC2CCCCN2)c2ccc(COCc3ccc(B(OCC4CCCCN4)c4ccc(C)c(Cl)c4)cc3)cc2)cc1Cl` (centres unmarked) [Example 423, bis(4,4′-(3-chloro-4-methylphenyl-2-piperidylmethoxyboryl)benzyl)ether]: the “TGase activity remaining (% of DMSO control = 100)” value in the assay on transglutaminase (TGase) (setting [3]) and in the assay with transglutaminase (TGase) (setting [4]) was 27 throughout. For the same molecule, the IC50 in assay [1] (setting [5]) worked out at 1200 nM. Besides, the x-Fold in assay [2] (setting [7]) and in assay [2] (setting [8]) was 0.76 in each case.

As to `CN(C)CCOB(c1ccc(COCc2ccc(B(OCCN(C)C)c3ccc(C(F)(F)F)cc3)cc2)cc1)c1ccc(C(F)(F)F)cc1` [Example 424, bis(4,4′-(p-trifluoromethylphenyl-N,N-dimethylaminoethoxyboryl)benzyl)ether], the “TGase activity remaining (% of DMSO control = 100)” value in the assay with transglutaminase (TGase) (setting [3]) and with transglutaminase (TGase) (setting [4]) was 22 in each case. Besides, the IC50 in assay [1] (setting [5]) was found to be 1200 nM. Further, the figures for the x-Fold in assay [2] (setting [6]), in assay [2] (setting [7]) and in assay [2] (setting [8]) were 0.69, 1.03 and 1.03, respectively.

Consider `NC(=O)CC(N)C(=O)OB(c1ccc(COCc2ccc(B(OC(=O)C(N)CC(N)=O)c3ccc(C(F)(F)F)cc3)cc2)cc1)c1ccc(C(F)(F)F)cc1` (centres unmarked) [Example 425, bis(4,4′-(p-trifluoromethylphenyl-asparagineboryl)benzyl)ether], for which the “TGase activity remaining (% of DMSO control = 100)” value in the assay with transglutaminase (TGase) (setting [3]) came out at 130. In addition, in assay [1] (setting [5]), the half-inhibitory concentration (IC50) is 500 nM. The x-Fold in assay [2] (setting [8]) came to 0.9.

With `NCCOB(c1ccc(COCc2ccc(B(OCCN)c3ccc(C(F)(F)F)cc3)cc2)cc1)c1ccc(C(F)(F)F)cc1` [Example 426, bis(4,4′-(p-trifluoromethylphenyl-aminoethoxyboryl)benzyl)ether], the “TGase activity remaining (% of DMSO control = 100)” value in the assay on transglutaminase (TGase) (setting [3]) and with transglutaminase (TGase) (setting [4]) was 19 each time. The half-maximal inhibitory concentration (IC50) in assay [1] (setting [5]) was 1200 nM. Besides, the x-Fold in assay [2] (setting [7]) and in assay [2] (setting [8]) was 0.93 in each case.

`CNCCOB(c1ccccc1)c1ccc(COc2ccc(B(OCCNC)c3ccccc3)cc2)cc1` [Example 427, (4-phenyl-N-methylaminoethoxyborylphenyl) (4′-phenyl-N-methylaminoethoxyborylbenzyl)ether]: the “TGase activity remaining (% of DMSO control = 100)” value in the assay with transglutaminase (TGase) (setting [3]) and with transglutaminase (TGase) (setting [4]) was 20 throughout. The 50% inhibitory concentration (IC50) in assay [1] (setting [5]) came to 800 nM. The values for the x-Fold in assay [2] (setting [6]), in assay [2] (setting [7]) and in assay [2] (setting [8]) were 1.02, 0.73 and 0.73, respectively.

Consider `CN(C)CCOB(c1ccccc1)c1ccc(COc2ccc(B(OCCN(C)C)c3ccccc3)cc2)cc1` [Example 428, (4-phenyl-N,N-dimethylaminoethoxyborylphenyl) (4′-phenyl-N,N-dimethylaminoethoxyborylbenzyl)ether], for which the “TGase activity remaining (% of DMSO control = 100)” value in the assay with transglutaminase (TGase) (setting [3]) and in the assay on transglutaminase (TGase) (setting [4]) was 53 throughout. The IC50 in assay [1] (setting [5]) came to 1500 nM. The x-Fold is 0.98 in assay [2] (setting [6]), 0.82 in assay [2] (setting [7]) and 0.82 in assay [2] (setting [8]).

Turning to `c1ccc(B(OCc2ccccn2)c2ccc(COc3ccc(B(OCc4ccccn4)c4ccccc4)cc3)cc2)cc1` [Example 429, (4-phenyl-2-pyridylmethoxyborylphenyl)(4′-phenyl-2-pyridylmethoxyborylbenzyl)ether], the “TGase activity remaining (% of DMSO control = 100)” value in the assay on transglutaminase (TGase) (setting [3]) and in the assay on transglutaminase (TGase) (setting [4]) was 102 in each case. Besides, the IC50 in assay [1] (setting [5]) was found to be 700 nM. In addition, the x-Fold in assay [2] (setting [7]) and in assay [2] (setting [8]) was 0.81 throughout.

Take `c1ccc(B(OCc2ccccn2)c2ccc(Oc3ccc(B(OCc4ccccn4)c4ccccc4)cc3)cc2)cc1` [Example 432, bis(4,4′-(phenyl-2-pyridylmethoxyboryl)phenyl)ether]: the “TGase activity remaining (% of DMSO control = 100)” value in the assay on transglutaminase (TGase) (setting [3]) and in the assay with transglutaminase (TGase) (setting [4]) was 60 throughout. Also, in assay [1] (setting [5]), the half-maximal inhibitory concentration (IC50) is 300 nM. The x-Fold in assay [2] (setting [7]) and in assay [2] (setting [8]) was 0.71 in each case.

As to `NCCSB(c1ccccc1)c1ccc(Oc2ccc(B(SCCN)c3ccccc3)cc2)cc1` [Example 433, bis(4,4′-(phenyl-aminoethylthioboryl)phenyl)ether], the “TGase activity remaining (% of DMSO control = 100)” value with transglutaminase (TGase) (setting [3]) and in the assay on transglutaminase (TGase) (setting [4]) was −5 in each case. Besides, the half-inhibitory concentration (IC50) in assay [1] (setting [5]) was 500 nM. Moreover, the x-Fold in assay [2] (setting [7]) and in assay [2] (setting [8]) was 0.71 in each case.

For `NCC(OB(c1ccccc1)c1ccc(Oc2ccc(B(OC(CN)c3ccccc3)c3ccccc3)cc2)cc1)c1ccccc1` (centres unmarked) [Example 434, bis(4,4′-(phenyl-2-amino-1-phenylethoxyboryl)phenyl)ether], the “TGase activity remaining (% of DMSO control = 100)” value with transglutaminase (TGase) (setting [3]) and with transglutaminase (TGase) (setting [4]) was 43 in each case. Further, the IC50 in assay [1] (setting [5]) came out at 400 nM; in assay [1] (Table 1) it was 1500 nM. In addition, the x-Fold in assay [2] (setting [6]) is reported as 0.06; in assay [2] (setting [7]) it was 0.60; in assay [2] (setting [8]), 0.60.

Turning to `NCCCC(N)C(=O)OB(c1ccccc1)c1ccc(Oc2ccc(B(OC(=O)C(N)CCCN)c3ccccc3)cc2)cc1` (centres unmarked) [Example 435, bis(4,4′-(phenyl-ornithineboryl)phenyl)ether], the “TGase activity remaining (% of DMSO control = 100)” value with transglutaminase (TGase) (setting [3]) and in the assay on transglutaminase (TGase) (setting [4]) was 26 throughout. Moreover, in assay [1] (setting [5]), the IC50 was determined as 2000 nM. Moreover, the x-Fold in assay [2] (setting [7]) and in assay [2] (setting [8]) was 0.84 throughout.

Consider `c1ccc(B(OCC2CCCN2)c2ccc(Oc3ccc(B(OCC4CCCN4)c4ccccc4)cc3)cc2)cc1` (centres unmarked) [Example 438, bis(4,4′-(phenyl-2-pyrrolidinemethoxyboryl)phenyl)ether], for which the “TGase activity remaining (% of DMSO control = 100)” value with transglutaminase (TGase) (setting [3]) and with transglutaminase (TGase) (setting [4]) was 29 in each case. In assay [1] (setting [5]), the half-inhibitory concentration (IC50) was 2000 nM. In addition, the x-Fold in assay [2] (setting [7]) and in assay [2] (setting [8]) was 0.67 in each case.

On to `c1ccc(COB(c2ccc(Oc3ccc(B(OCc4ccccn4)c4cccc5ccccc45)cc3)cc2)c2cccc3ccccc23)nc1` [Example 443, bis(4,4′-(naphthyl-2-pyridylmethoxyboryl)phenyl)ether], for which the “TGase activity remaining (% of DMSO control = 100)” value with transglutaminase (TGase) (setting [3]) and with transglutaminase (TGase) (setting [4]) was 84 in each case. In addition, the half-maximal inhibitory concentration (IC50) in assay [1] (setting [5]) came to 3000 nM. Moreover, the x-Fold in assay [2] (setting [7]) and in assay [2] (setting [8]) was 0.63 throughout.

Consider `NC(=O)CCC(N)C(=O)OB(c1ccc(Oc2ccc(B(OC(=O)C(N)CCC(N)=O)c3cccc4ccccc34)cc2)cc1)c1cccc2ccccc12` (centres unmarked) [Example 444, bis(4,4′-(naphthylglutamineboryl)phenyl)ether], for which the “TGase activity remaining (% of DMSO control = 100)” value with transglutaminase (TGase) (setting [3]) and with transglutaminase (TGase) (setting [4]) was 20 throughout. Also, the IC50 in assay [1] (setting [5]) stood at 1400 nM. In addition, the x-Fold in assay [2] (setting [7]) and in assay [2] (setting [8]) was 0.65 each time.

Source of the values: patent US8853424B2 (Japan Science and Technology Agency, priority 2008, dated 2014).
